One assay concerns PGE2 production. Nature of the assay: PGE2 production in cells by ELISA. The assay is classed as cell-based, human. The note with it: DU145 and UM-SCC-22B cells, 12 h; PMA 100 nM, NS398, indomethacin, PD98059 each 10 μM. The method, then: Cells were plated in 48-well culture dishes and treated or without PMA (100 nM), NS398 (10 μM), indomethacin (10 μM) or PD98059 (10 μM) for 12 h. Cells were transferred to 200 μl PBS for the last 30 min. Samples were then collected and subjected to quantitative analysis of PGE2 by ELISA. The results are shown as mean±SD of results from three representative studies.

The test system of assay [1] is PGHS-2 protein expression. Kind of assay: PGHS-2 protein by immunoblotting of nuclear/cytosol proteins. The assay is classed as cell-based, human. The note with it: 12 h, PMA 100 nM; for PGHS-2 protein / PGHS-2 expression: confluent UM-SCC-22B cells, PD98059 10 μM, SB203580 10 μM, PDTC 100 μM.
Procedure: A: Effects of PKC activation or signaling pathway inhibitors on PGHS-2 expression. UM-SCC 22B cells were allowed to grow to confluence in 10 cm culture dishes, and then received either control medium (lane 1) or medium containing PMA (lane 2, 100 nM), PD98059 (PD, lane 3, 10 μM), SB203580 (SB, lane 4, 10 μM) or PDTC (lane 5, 100 μM) for 16 h. Cell monolayers were harvested and 40 μg nuclear protein were subjected to immunoblotting with anti-human PGHS-2 (upper panel) or anti-pMAPK (pERK1/2, lower panel). […] Results shown are the means±SD from three similar experiments.
Fractionation of cells in a microfuge and preparation of nucleoproteins was by a previously reported method (Lin et al., 2002). Nuclear extracts were prepared by resuspension of the crude nuclear fraction in high salt buffer (420 mN NaCl, 20% glycerol) at 4° C. with rocking for 1 h. The supernatants were then collected after subsequent centrifugation at 4° C. and 13,000 rpm for 10 min.
For the next assay, the system named is PGHS-2 promoter. Nature of the assay: Chromatin immunoprecipitation (ChIP) of PGHS-2 binding to the PGHS-2 promoter. In kind it is cell-based, human. The note with it: 12 h, PMA 100 nM, PDTC 100 μM, PD98059 10 μM. The method, then: (§1) A: ChIP was performed with PGHS-2 antibody, using UM-SCC-22B (22B) cells constitutively expressing PGHS-2, and in the absence (Con) or presence of PMA (100 nM), PDTC (100 μM) or PD98059 (PD, 10 μM) for 12 h. Input and immunoprecipitated (IP) DNA was amplified by using primers for MDM2, PGHS-2 promoter and PGHS-2 ORF, and the amplified DNAs were then separated by electrophoresis and scanned with the VersaDOC™ Imaging System.
(§2) In ChIP experiments in prostate cancer cells, using monoclonal anti-PGHS-2, we compared the amount of immunoprecipitable PGHS-2 promoter sequence with the amount of input DNA for each sample; a PGHS-2 ORF primer served as a negative control. […] PGHS-2 also bound to the promoter region of MDM2.
Chromatin immunoprecipitation was performed as described by Luo et al. (1998) and Braunstein et al. (1996). Aliquots of cells (6 ×10^6) in monolayers were treated with 1% formaldehyde for 15 min at room temperature to effect crosslinking. Monolayers were then washed twice with PBS. Extracts were prepared by scraping cells in 1 ml of buffer (150 mM NaCl, 1% NP-40, 0.5% DOC, 0.1% SDS, 50 mM Tris [pH 8.0], 5 mM EDTA) that contained the protease inhibitors leupeptin (10 µg/ml) and pepstatin A (10 µg/ml), phosphatase inhibitors (50 mM NaF and 0.2 mM sodium orthovanadate) and the deacetylase inhibitor, trichostatin A, 5 µM (Calbiochem, San Diego, Calif.). Cell lysates were sonicated to yield chromatin fragments of approximately 600 bp, as assessed by agarose gel electrophoresis. Immunoprecipitation was carried out with anti-p53 (Santa Cruz, Santa Cruz, Calif.), anti-phosphoSer392-p53 (Cell Signaling, Beverly, Mass.), or anti-acetylated p53 (Upstate Biotechnology, Lake Placid, N.Y.). For studies of the PGHS-2 promoter, anti-PGHS-2 (Cayman) was used. […] Relative levels of DNA were determined with QuantifyOne software (Bio-Rad Laboratories, Inc., Hercules, Calif.).

In the next assay the test system is MDM2 promoter. Kind of assay: Chromatin immunoprecipitation (ChIP) of PGHS-2 binding to the MDM2 promoter. The settings on record: 12 h, PDTC 100 μM, PD98059 10 μM. In kind it is cell-based, human. The method, then: as §1, §2
Chromatin immunoprecipitation was performed as described by Luo et al. (1998) and Braunstein et al. (1996). Aliquots of cells (6 ×10^6) in monolayers were treated with 1% formaldehyde for 15 min at room temperature to effect crosslinking. Monolayers were then washed twice with PBS. […] Cell lysates were sonicated to yield chromatin fragments of approximately 600 bp, as assessed by agarose gel electrophoresis. […] Relative levels of DNA were determined with QuantifyOne software (Bio-Rad Laboratories, Inc., Hercules, Calif.).

Another assay concerns human PGHS-2 promoter. Nature of the assay: PGHS-2 promoter (-831/+123) luciferase reporter assay. In kind it is cell-based. The settings on record: UM-SCC-22B cells, 12 h; PMA 100 nM, PD98059 10 μM, PDTC 100 μM, SB203580 10 μM.
The subject of assay [2] is PGHS-1 protein expression. Kind of assay: PGHS-1 protein by immunoblotting. The assay is classed as cell-based, human. The note with it: PMA 100 nM, 12 h; cancer cell lines. The method, then: FIG. 2. Expression of PGHS-2 in ECV 304, DU145 and UM-SCC-22B (22B) cells A: Constitutive expression of PGHS-2 protein in ECV 304, DU145 and UM-SCC-22B cells. Cells were grown to confluence in 10 cm dishes. Monolayers were treated with or without PMA (100 nM) for 12 h; nuclear proteins were then harvested and subjected to immunoblotting with antihuman PGHS-2 (panel 1) or -PGHS-1 (panel 2).
(§3) The techniques used were those previously described by our laboratory (Lin et al., 1999). In brief, nucleoproteins were separated on discontinuous SDS-PAGE (9% gels) and then transferred by electroblotting to Immobilon membranes (Millipore, Bedford, Mass.). After blocking with 5% milk in Tris-buffered saline containing 0.1% Tween, the membranes were incubated with various antibodies overnight. Secondary antibodies were either goat anti-rabbit IgG (1:1000) or rabbit anti-mouse IgG (1:1000) (Dako, Carpenteria, Calif.), depending upon the origin of the primary antibody. Immunoreactive proteins were detected by chemiluminescence.

The subject of a further assay is PGHS-2 mRNA. Kind of assay: PGHS-2 mRNA levels by RT-PCR. In kind it is cell-based, human. The note with it: PMA 100 nM, 8 h; ECV 304, DU145 and UM-SCC-22B cells. The method, then:
B: PGHS-2 mRNA levels in ECV 304, DU145 and UM-SCC-22B cells. Confluent cells were treated with or without PMA (100 nM) for 8 h. Total RNA samples were harvested and subjected to RT-PCR using PGHS-2 or GAPDH primers (top and bottom panels, respectively).

Assay [3] relates to PGHS-2 / MDM2 association. Kind of assay: Co-immunoprecipitation of nuclear PGHS-2 with MDM2. The assay is classed as cell-based, human. The settings on record: UM-SCC-22B cells, PMA 100 nM, 12 h. The method, then:
(§4) Confluent UM-SCC-22B (22B) cells were treated with PMA, 100 nM, or solvent alone for 12 h. Cell nuclei were prepared (Lin et al., 1999) and immunoprecipitated with antibody to PGHS-2. Immunoprecipitated proteins were separated by gel electrophoresis and immunoblotted with antibody to c-Fos, MDM2 or p300. Shown are representative immunoblots from 3 similar experiments. Co-localization of c-Fos with PGHS-2 is seen in nuclei of UM-SCC-22B cells.
as §3

Assay [4] relates to PGHS-2 / p300 association. Nature of the assay: Co-immunoprecipitation of nuclear PGHS-2 with p300. In kind it is cell-based, human. The settings on record: UM-SCC-22B cells, PMA 100 nM, 12 h. As for the experimental part: as §4, §3
Assay [5] concerns PGHS-2 / c-Fos association. Nature of the assay: Co-immunoprecipitation of nuclear PGHS-2 with c-Fos. In kind it is cell-based, human. The settings on record: UM-SCC-22B cells, PMA 100 nM, 12 h. As for the experimental part: as §4, §3

Procedure for human PGHS-2 promoter: UM-SCC-22B cells were transfected with the −831/+123 PGHS-2 promoter constructs fused to a luciferase reporter or the luciferase reporter with the SV 40 promoter (pGL2 promoter).
Aliquots of cells were treated with PMA (100 mM), PD98059 (10 μM), PDTC (100 μM), or SB203580 (10 μM) for 12 h. Cultures were co-transfected with β-galactosidase reporter plasmids, and luciferase activity, corrected for β-galactosidase activity, measured and expressed as the mean±SD of triplicate culture determinations from three experiments.
To assess PGHS-2 promoter activity in UM-SCC-22B cells, the proximal −831/+123 base pairs of the human PGHS-2 promoter were fused to a luciferase reporter (pGHS-2 LUC) (Cao et al., 1999). This PGHS-2 reporter or SV40 LUC (pGL2 promoter) were transfected into near confluent UM-SCC-22B tumor cells.

Consider `CS(=O)(=O)Nc1ccc([N+](=O)[O-])cc1OC1CCCCC1` [NS398], for which the PGE2 production entry in the assay on PGE2 production is recorded as “decreased PGE2 production in cancer cells to basal levels”.

For `COc1cccc(-c2cc(=O)c3ccccc3o2)c1N` [PD98059], in [1], the “PGHS-2 protein / PGHS-2 expression” value is reported as “decreased to very low levels”. Besides, in the assay with PGHS-2 promoter, the “binding of PGHS-2 to the PGHS-2 promoter” value is recorded as “inhibited”. Besides, in the assay with MDM2 promoter, the “binding of PGHS-2 to the MDM2 promoter” value is “inhibited”. For the same compound, in the assay with PGE2 production, the PGE2 production entry is on record as “decreased PGE2 production in cancer cells to basal levels”. Further, the “PGHS-2 promoter activity (luciferase)” value in the assay on human PGHS-2 promoter is recorded as “inhibited”.

On to `S=C(S)N1CCCC1` [PDTC, pyrrolidine dithiocarbamate], for which the “PGHS-2 protein / PGHS-2 expression” value in assay [1] is recorded as “minimally inhibited”. Besides, in the assay on PGHS-2 promoter, the “binding of PGHS-2 to the PGHS-2 promoter” value was “inhibited”. Moreover, the “binding of PGHS-2 to the MDM2 promoter” value in the assay with MDM2 promoter was “inhibited”. The “PGHS-2 promoter activity (luciferase)” value in the assay on human PGHS-2 promoter is reported as “inhibited”.

Take `CCCCCCCCCCCCCC(=O)O[C@@H]1[C@@H](C)[C@@]2(O)[C@@H](C=C(CO)C[C@]3(O)C(=O)C(C)=C[C@@H]23)[C@@H]2C(C)(C)[C@]12OC(C)=O` [PMA, phorbol-12-myristate-13-acetate]: in assay [1], the “cytosolic PGHS-2” value is listed as “increased” and the “PGHS-2 protein / PGHS-2 expression” value was “increase”. Also, in [1] (ECV 304, DU145 and UM-SCC-22B cells), the “abundance of PGHS-2 protein in nuclei” value is “increased”. In addition, the “abundance of PGHS-1” value in assay [2] is listed as “no effect”. Further, in the assay on PGHS-2 promoter, the “binding of PGHS-2 to the PGHS-2 promoter” value was “minimal increases”. In the assay with PGHS-2 mRNA, the “abundance of PGHS-2 mRNA” value was “increased”. Further, the “nuclear association of PGHS-2 with MDM2” value in assay [3] is given as “little increase”. Also, the “nuclear association of PGHS-2 with p300” value in assay [4] was “little increase”. In addition, the PGE2 production result with PGE2 production is “did not significantly increase”. Further, the “PGHS-2 promoter activity (luciferase)” value in the assay with human PGHS-2 promoter is listed as “only negligibly increased”. The “nuclear association of PGHS-2 with c-Fos” value in assay [5] is “marked increase”.

With `C[S+]([O-])c1ccc(-c2nc(-c3ccncc3)c(-c3ccc(F)cc3)[nH]2)cc1` (stereo not drawn) [SB203580], the “PGHS-2 protein / PGHS-2 expression” value in [1] is given as “minimally inhibited”. Further, the “PGHS-2 promoter activity (luciferase)” value in the assay on human PGHS-2 promoter is “inhibited”.

Turning to `COc1ccc2c(c1)c(CC(=O)O)c(C)n2C(=O)c1ccc(Cl)cc1` [indomethacin], the PGE2 production result in the assay on PGE2 production was “decreased PGE2 production in cancer cells to basal levels”.

For the origin of these results see patent US7927799B2, “Inhibitors of PGHS-2Transactivator activity” (Ordway Research Institute, priority 2005, dated 2011).
